15 molecules from patent US20240116985A1, “STAPLED PEPTIDES AND METHODS THEREOF” (priority 2020, published 2024) can be followed below.

This data set is described as follows: CHI Log D procedure. Format: physicochemical. The settings on record: for chromatographic logD: pH 7.4, CHI Log D; for CHI Log D: pH 7.4.

A word on the chromatographic logD: it is a lipophilicity value derived from retention on a column. A lower chromatographic logD goes with a more hydrophilic compound. `CC(=O)N[C@@H](Cc1ccccc1)C(=O)N[C@@H](CC(=O)O)C(=O)N[C@@H](C)C(=O)N[C@]1(C)CCCCCCC=CCOC(=O)N2CC[C@@](C(=O)N[C@@H](Cc3ccc(O)cc3)C(=O)N[C@@H](Cc3c[nH]c4ccccc34)C(=O)N[C@@H](CCC(N)=O)C(N)=O)(C2)NC(=O)[C@H](C(C)C)NC(=O)[C@H](Cc2ccccc2)NC(=O)[C@H](C)NC(=O)[C@H](C)NC(=O)[C@H](CC(=O)O)NC(=O)[C@H](CC(=O)O)NC1=O` (single isomer, unassigned) [I-62, Ac-Phe-Asp-Ala-R8-Asp-Asp-Ala-Ala-Phe-Val-PyrS-Tyr-Trp-Gln-NH2] gave a chromatographic logD of 0.981. For `CC(=O)N[C@@H](Cc1ccccc1)C(=O)N[C@@H](CC(=O)O)C(=O)N[C@@H](C)C(=O)N[C@]1(C)CCCCCCC=CCOC(=O)N2CC[C@@](C(=O)N[C@@H](Cc3ccc(O)cc3)C(=O)N[C@@H](Cc3c[nH]c4ccccc34)C(=O)N[C@@H](CCC(N)=O)C(N)=O)(C2)NC(=O)[C@H](C(C)C)NC(=O)[C@H](Cc2ccccc2)NC(=O)[C@H](C)NC(=O)[C@H](C)NC(=O)[C@H](CC(=O)O)NC(=O)[C@H](CC(=O)O)NC1=O` (single isomer, unassigned) [I-63, Ac-Phe-Asp-Ala-R8-Asp-Asp-Ala-Ala-Phe-Val-PyrS-Tyr-Trp-Gln-NH2], the “CHI Log D” value is 1.019. The molecule `CC[C@H](C)[C@H](NC(=O)[C@H](CC(=O)O)NC(=O)[C@H](C)NC(C)=O)C(=O)N[C@]1(C)CCN(C)C(=O)OCC=CCCCCC[C@@](C)(C(=O)N[C@@H](Cc2ccccc2)C(=O)N[C@@H](Cc2c[nH]c3ccccc23)C(=O)N[C@@H](Cc2c[nH]cn2)C(N)=O)NC(=O)[C@H](CCC(N)=O)NC(=O)[C@H](Cc2ccccc2)NC(=O)[C@H](C)NC(=O)[C@H](C)NC(=O)[C@H](CCC(C)C)NC(=O)[C@H](CC(=O)O)NC1=O` (single isomer, unassigned) [I-70, Ac-Ala-Asp-Ile-RdN-Asp-hLeu-Ala-Ala-Phe-Gln-S7-Phe-Trp-His-NH2] showed a chromatographic logD of 1.61. For the molecule `CC[C@H](C)[C@H](NC(=O)[C@H](CC(=O)O)NC(=O)[C@H](C)NC(C)=O)C(=O)N[C@]1(C)CCN(C)C(=O)OCC=CCCCCC[C@@](C)(C(=O)N[C@@H](Cc2ccccc2)C(=O)N[C@@H](Cc2c[nH]c3ccccc23)C(=O)N[C@@H](Cc2c[nH]cn2)C(N)=O)NC(=O)[C@H](CCC(N)=O)NC(=O)[C@H](Cc2ccccc2)NC(=O)[C@H](C)NC(=O)[C@H](C)NC(=O)[C@H](CCC(C)C)NC(=O)[C@H](CC(=O)O)NC1=O` (single isomer, unassigned) [I-71, Ac-Ala-Asp-Ile-RdN-Asp-hLeu-Ala-Ala-Phe-Gln-S7-Phe-Trp-His-NH2], the “CHI Log D” value is 1.686. Turning to `CC[C@H](C)[C@H](NC(=O)[C@H](CC(=O)O)NC(=O)[C@H](C)NC(C)=O)C(=O)N[C@]1(C)CCN(C)C(=O)OCC=CCCCCC[C@@](C)(C(=O)N[C@@H](Cc2ccccc2)C(=O)N[C@@H](Cc2c[nH]c3ccccc23)C(=O)N[C@@H](Cc2c[nH]cn2)C(N)=O)NC(=O)[C@H](CCC(N)=O)NC(=O)[C@H](Cc2ccccc2)NC(=O)[C@H](C)NC(=O)[C@H](C)NC(=O)[C@H](CC2CCCCC2)NC(=O)[C@H](CC(=O)O)NC1=O` (single isomer, unassigned) [I-72, Ac-Ala-Asp-Ile-RdN-Asp-Cha-Ala-Ala-Phe-Gln-S7-Phe-Trp-His-NH2], the chromatographic logD amounted to 1.72. As to `CC[C@H](C)[C@H](NC(=O)[C@H](CC(=O)O)NC(=O)[C@H](C)NC(C)=O)C(=O)N[C@]1(C)CCN(C)C(=O)OCC=CCCCCC[C@@](C)(C(=O)N[C@@H](Cc2ccccc2)C(=O)N[C@@H](Cc2c[nH]c3ccccc23)C(=O)N[C@@H](Cc2c[nH]cn2)C(N)=O)NC(=O)[C@H](CCC(N)=O)NC(=O)[C@H](Cc2ccccc2)NC(=O)[C@H](C)NC(=O)[C@H](C)NC(=O)[C@H](CC2CCCCC2)NC(=O)[C@H](CC(=O)O)NC1=O` (single isomer, unassigned) [I-73, Ac-Ala-Asp-Ile-RdN-Asp-Cha-Ala-Ala-Phe-Gln-S7-Phe-Trp-His-NH2], the “CHI Log D” value came out at 1.723.

As to `CC(=O)N[C@@H](Cc1ccccc1)C(=O)N[C@@H](CC(=O)O)C(=O)N[C@@H](C)C(=O)N[C@]1(C)CCCCCCC=CCOC(=O)N2CC[C@@](C(=O)N[C@@H](Cc3ccccc3)C(=O)N[C@@H](Cc3c[nH]c4ccccc34)C(=O)N[C@@H](CCC(N)=O)C(N)=O)(C2)NC(=O)[C@H](C(C)C)NC(=O)[C@H](CC2CCCCC2)NC(=O)[C@H](C)NC(=O)[C@H](C)NC(=O)[C@H](CC(=O)O)NC(=O)[C@H](CC(=O)O)NC1=O` (single isomer, unassigned) [I-74, Ac-Phe-Asp-Ala-R8-Asp-Asp-Ala-Ala-Cha-Val-PyrS-Phe-Trp-Gln-NH2], the chromatographic logD was 1.33.

Regarding `CC(=O)N[C@@H](Cc1ccccc1)C(=O)N[C@@H](CC(=O)O)C(=O)N[C@@H](C)C(=O)N[C@]1(C)CCCCCCC=CCOC(=O)N2CC[C@@](C(=O)N[C@@H](Cc3ccccc3)C(=O)N[C@@H](Cc3c[nH]c4ccccc34)C(=O)N[C@@H](CCC(N)=O)C(N)=O)(C2)NC(=O)[C@H](C(C)C)NC(=O)[C@H](CC2CCCCC2)NC(=O)[C@H](C)NC(=O)[C@H](C)NC(=O)[C@H](CC(=O)O)NC(=O)[C@H](CC(=O)O)NC1=O` (single isomer, unassigned) [I-75, Ac-Phe-Asp-Ala-R8-Asp-Asp-Ala-Ala-Cha-Val-PyrS-Phe-Trp-Gln-NH2], the “CHI Log D” value stood at 1.376.

In turn, `CC(=O)N[C@@H](Cc1ccccc1)C(=O)N[C@@H](CC(=O)O)C(=O)N[C@@H](C)C(=O)N[C@]1(C)CCCCCCC=CCOC(=O)N2CC[C@@](C(=O)N[C@@H](Cc3ccccn3)C(=O)N[C@@H](Cc3c[nH]c4ccccc34)C(=O)N[C@@H](CCC(N)=O)C(N)=O)(C2)NC(=O)[C@H](C(C)C)NC(=O)[C@H](Cc2ccccc2)NC(=O)[C@H](C)NC(=O)[C@H](C)NC(=O)[C@H](CC(=O)O)NC(=O)[C@H](CC(=O)O)NC1=O` (single isomer, unassigned) [I-80, Ac-Phe-Asp-Ala-R8-Asp-Asp-Ala-Ala-Phe-Val-PyrS-2PyrA-Trp-Gln-NH2] showed a chromatographic logD of 1.04. With `CC(=O)N[C@@H](Cc1ccccc1)C(=O)N[C@@H](CC(=O)O)C(=O)N[C@@H](C)C(=O)N[C@]1(C)CCCCCCC=CCOC(=O)N2CC[C@@](C(=O)N[C@@H](Cc3cccnc3)C(=O)N[C@@H](Cc3c[nH]c4ccccc34)C(=O)N[C@@H](CCC(N)=O)C(N)=O)(C2)NC(=O)[C@H](C(C)C)NC(=O)[C@H](Cc2ccccc2)NC(=O)[C@H](C)NC(=O)[C@H](C)NC(=O)[C@H](CC(=O)O)NC(=O)[C@H](CC(=O)O)NC1=O` (single isomer, unassigned) [I-82, Ac-Phe-Asp-Ala-R8-Asp-Asp-Ala-Ala-Phe-Val-PyrS-3PyrA-Trp-Gln-NH2], the chromatographic logD amounted to 1. Consider `CC(=O)N[C@@H](Cc1ccccc1)C(=O)N[C@@H](CC(=O)O)C(=O)N[C@@H](C)C(=O)N[C@]1(C)CCCCCCC=CCOC(=O)N2CC[C@@](C(=O)N[C@@H](Cc3cccnc3)C(=O)N[C@@H](Cc3c[nH]c4ccccc34)C(=O)N[C@@H](CCC(N)=O)C(N)=O)(C2)NC(=O)[C@H](C(C)C)NC(=O)[C@H](Cc2ccccc2)NC(=O)[C@H](C)NC(=O)[C@H](C)NC(=O)[C@H](CC(=O)O)NC(=O)[C@H](CC(=O)O)NC1=O` (single isomer, unassigned) [I-83, Ac-Phe-Asp-Ala-R8-Asp-Asp-Ala-Ala-Phe-Val-PyrS-3PyrA-Trp-Gln-NH2], for which the “CHI Log D” value was determined as 1.032.

Take `CC(=O)N[C@@H](Cc1ccccc1)C(=O)N[C@@H](CC(=O)O)C(=O)N[C@@H](C)C(=O)N[C@]1(C)CCCCCCC=CCOC(=O)N2CC[C@@](C(=O)N[C@@H](Cc3ccncc3)C(=O)N[C@@H](Cc3c[nH]c4ccccc34)C(=O)N[C@@H](CCC(N)=O)C(N)=O)(C2)NC(=O)[C@H](C(C)C)NC(=O)[C@H](Cc2ccccc2)NC(=O)[C@H](C)NC(=O)[C@H](C)NC(=O)[C@H](CC(=O)O)NC(=O)[C@H](CC(=O)O)NC1=O` (single isomer, unassigned) [I-84, Ac-Phe-Asp-Ala-R8-Asp-Asp-Ala-Ala-Phe-Val-PyrS-4PyrA-Trp-Gln-NH2]: the chromatographic logD was determined as 0.985. For the molecule `CC(=O)N[C@@H](Cc1ccccc1)C(=O)N[C@@H](CC(=O)O)C(=O)N[C@@H](C)C(=O)N[C@]1(C)CCCCCCC=CCOC(=O)N2CC[C@@](C(=O)N[C@@H](Cc3ccncc3)C(=O)N[C@@H](Cc3c[nH]c4ccccc34)C(=O)N[C@@H](CCC(N)=O)C(N)=O)(C2)NC(=O)[C@H](C(C)C)NC(=O)[C@H](Cc2ccccc2)NC(=O)[C@H](C)NC(=O)[C@H](C)NC(=O)[C@H](CC(=O)O)NC(=O)[C@H](CC(=O)O)NC1=O` (single isomer, unassigned) [I-85, Ac-Phe-Asp-Ala-R8-Asp-Asp-Ala-Ala-Phe-Val-PyrS-4PyrA-Trp-Gln-NH2], the “CHI Log D” value is given as 0.998. Turning to `CC(=O)N[C@@H](Cc1ccccc1)C(=O)N[C@@H](CC(=O)O)C(=O)N[C@@H](C)C(=O)N[C@]1(C)CCCCCCC=CCOC(=O)N2CC[C@@](C(=O)N[C@@H](Cc3ccccc3)C(=O)N[C@@H](Cc3c[nH]c4ccccc34)C(=O)N[C@@H](CCC(N)=O)C(N)=O)(C2)NC(=O)[C@H](C(C)C)NC(=O)[C@H](Cc2cccnc2)NC(=O)[C@H](C)NC(=O)[C@H](C)NC(=O)[C@H](CC(=O)O)NC(=O)[C@H](CC(=O)O)NC1=O` (single isomer, unassigned) [I-87, Ac-Phe-Asp-Ala-R8-Asp-Asp-Ala-Ala-3PyrA-Val-PyrS-Phe-Trp-Gln-NH2], the chromatographic logD came out at 1.15. As to `CC(=O)N[C@@H](Cc1ccccc1)C(=O)N[C@@H](CC(=O)O)C(=O)N[C@@H](C)C(=O)N[C@]1(C)CCCCCCC=CCOC(=O)N2CC[C@@](C(=O)N[C@@H](Cc3ccccc3)C(=O)N[C@@H](Cc3c[nH]c4ccccc34)C(=O)N[C@@H](CCC(N)=O)C(N)=O)(C2)NC(=O)[C@H](C(C)C)NC(=O)[C@H](Cc2cccnc2)NC(=O)[C@H](C)NC(=O)[C@H](C)NC(=O)[C@H](CC(=O)O)NC(=O)[C@H](CC(=O)O)NC1=O` (single isomer, unassigned) [I-88, Ac-Phe-Asp-Ala-R8-Asp-Asp-Ala-Ala-3PyrA-Val-PyrS-Phe-Trp-Gln-NH2], the “CHI Log D” value is listed as 1.239.
